Common to all, as to format: in vivo
The subject of test [1] is Male CD-1 mice. Kind of test: Oil of mustard induced colitis model. The conditions noted are these: Therapeutic Regimen, 5 mg/kg oral; 5 mg/kg. From the text: In the distal colon, the oil of mustard colitis model is characterized by a discontinuous pattern of mucosal epithelial damage, submucosal edema, infiltration of inflammatory cells (including macrophages, neutrophils and lymphocytes) into the mucosa and submucosa, increased wet weight of the colon, shrinkage of the colon length, diarrhea and apparent inflammation (see, Kimball E. S., Palmer J. M., D'Andrea M. R., Homby P. J. and Wade P. R., Acute colitis induction by oil of mustard results in later development of an IBS-like accelerated upper GI transit in mice, Am. J Physiol. Gastrointest. Liver Physiol., 2005, 288: G 1266-1273).
Male CD-1 mice (Charles River Laboratories, Kingston, N.C.) (9-11 weeks old) and fresh oil of mustard (OM) (allyl isothiocyanate, 98% purity, Sigma-Aldrich St. Louis, Mo.) were used.
The mice (9 per treatment group) were briefly anesthetized with ketamine/xylasine (Sigma, St. Louis, Mo.) and a solution of 0.5% OM in 30% ethanol (50 μL) was administered intracolonically (to a depth of 4 cm) via syringe (equipped with a ball-tipped 22 G needle).
A test compound was orally administered one day prior to colitis induction for assessing a prophylactic regimen or one day post-induction for assessing a therapeutic regimen. A test compound was orally administered daily thereafter. Two days after OM administration, the last test compound dose was administered.
Three days after OM administration, the animals were sacrificed. The colons were resected, examined for signs of inflammation, weighed after removing fecal contents and the length from the aboral end of the cecum to the anus was measured. The fecal contents were examined for signs of diarrhea. The distal colon between the 1st and the 4th centimeter was removed and placed in 10% neutral buffered formalin for histological analysis.
The macroscopic observations of colon inflammation (a measure of colon damage), colon weight and length and stool consistency and appearance were assigned a score and used to evaluate colitis severity.
The four observation scores for each colon were combined, whereby a combined score of 0 represents a normal colon and a combined score of 15 represents a maximally affected colon. Statistical analyses were performed in Graphpad Prism 4.0 using ANOVA.
Histological analyses of tissues consisted of staining paraffin-embedded tissue sections with hematoxylin-eosin dye. The tissues were examined using light microscopy by an investigator who was blinded to the sample groups.
The microscopic observations of epithelial damage, cellular infiltration and damage or alteration of smooth muscle architecture (a measure of muscle damage) were assigned a score and used to evaluate colitis severity.
The scores for each colon were combined, whereby a combined score of 0 represents a normal colon and a combined score of 9 represents a maximally affected colon. Statistical analyses were performed in Graphpad Prism 4.0 using ANOVA.
The Macroscopic Score and Microscopic Score results for each treatment group in the prophylactic and therapeutic regimens were each combined into a mean score and expressed as % inhibition of colitis (% Inh). Test (#) represents the number of experiments at each dose level.

Test [2] has as its system Male CD-1 mice. Kind of test: Postoperative inflammatory ileus, upper gastrointestinal transit (FITC-dextran, Geometric Center). The following applies: Surgical Manipulation, 24 hr post-laparotomy, mean ± SE, scale 1 to 15. As for the experimental part: (§1) Male CD-1 mice were anesthetized by inhaled isoflurane and prepared for surgery. The abdomen was shaved of hair and treated with antiseptic solution. The animal was then covered with a surgical drape, leaving the abdomen exposed. A mid-line laparotomy was performed, and the entire small intestine was exteriorized onto the sterile drape. Using two moistened, sterile, cotton-tipped applicators, the small intestine was then gently compressed along its length from the ligament of Treitz to the ileo-cecal junction. The small intestine was then returned to the abdominal cavity and the incision closed by two layers of sutures.
(§2) Age-matched mice were randomly assigned to groups (6 animals per group) and injected intraperitoneally (i.p.) with “vehicle” (a mixture of 5% ethanol/5% Tween80/90% of 5% dextran in water w/v) containing various doses of a test compound 1 hr prior to laparotomy. The second group was injected intraperitoneally with vehicle. The third group was administered intragastrically (1 mg/kg) a mixture (1 mg/mL) of dexamethasone in 20% hydroxypropyl methyl dextran in water, once per day for two days prior to surgery and 5 hrs post-laparotomy. The fourth group received no intervention and served as naïve controls.
Upper gastrointestinal transit was measured 24 hr post-laparotomy. Mice were fed a test meal consisting of 150 μL of FITC-dextran solution (5 mg/mL of 70,000 molecular weight dextran conjugated to fluorescein-isothiocyanate in 0.5% hydroxypropyl methylcellulose/deionized water) administered intragastrically by an 18 gauge feeding tube. Following oral administration of the FITC-dextran test meal, animals were returned to their home cages. Following a 45 min test period, mice were euthanized by isoflurane overdose and exsanguination. The entire gastrointestinal tract from the lower esophageal sphincter to the terminal colon was removed. The bowel segments were opened along the mesenteric border. The tissue and luminal contents of the stomach, 10 equal segments of small intestine, the cecum, and 3 equal segments of colon were placed in individual Eppendorf tubes containing 1 ml of PBS. The tissue was vigorously mixed on a tabletop vortex, and solid materials were pelletized by centrifugation. Aliquots of the cleared supernatant were read in duplicate on a 96-well fluorescence plate reader to quantify the magnitude of the fluorescent signal in each segment of bowel.
These values were used to calculate the Geometric Center (REF), which is defined as the weighted average distribution of the fluorescent signal along the gastrointestinal tract: GC=Σ(% of total fluorescent signal per segment×segment number)/100,
Higher GC values represent faster rates of transit on scale of 1 to 15.
Surgical manipulation of the small bowel leads to a significant delay in gastrointestinal transit, going from a Geometric Center of 8.4 in normal mice to 3.3 in vehicle treated animals.

Test [3] relates to Male CD-1 mice. Kind of test: Postoperative inflammatory ileus, microscopic myeloperoxidase histological examination. The following applies: Surgical Manipulation, 24 hr post-laparotomy, mean ± SE. The protocol:
as §1, §2
Microscopic histological examination was performed on harvested tissues 24 hr post-laparotomy. […] Hanker-Yates reagent (Polysciences Inc.) forms an insoluble, blue-black polymer in the presence of hydrogen peroxide and peroxidase enzyme activity. Segments of mid small bowel were collected from the centrifuge tubes described in the previous section. Whole mounts of the muscle layer were prepared by opening the tube of bowel along the mesenteric border and pinning the tissue flat in a Sylgard™ lined Petri dish with the mucosal surface facing upward. The tissue was stretched to 1.5 times its length and 2.5 times its width, and the mucosa removed by fine dissection. The remaining muscularis whole mounts were then fixed with 100% ethanol for 45 min, washed 3 times with PBS, and incubated for 20 min in PBS containing 0.1% hydrogen peroxide and 1 mg/ml Hanker-Yates reagent (Polysciences, Inc). The reagent is polymerized in the presence of hydrogen peroxide and peroxidase activity to form a blue-black deposit. Following a second wash with PBS, the whole mounts were mounted on glass slides, cover-slipped, and viewed on an optical microscope. Myeloperoxidase containing leukocytes were counted in 6 to 8 adjacent 200× optical fields, and the mean cell counts were calculated and recorded.
The presence of myeloperoxidase (MPO) positive immune cells in the intestinal muscularis is rare in normal animals.

For the compound `O=C(N[C@H](CO)c1ccccc1)c1n[nH]c2c1CCCCC2Cc1cccc(Cl)c1` (single isomer, unassigned) [Cpd 230, (8R*)-8-(3-chloro-benzyl)-1,4,5,6,7,8-hexahydro-cycloheptapyrazole-3-carboxylic acid [(1S)-2-hydroxy-1-phenyl-ethyl]-amide], the “% Inh (Macro), % inhibition of colitis, macroscopic score” value in test [1] was 25.9 ± 24.7%.

Regarding `O=C(N[C@H](CO)c1ccccc1)c1n[nH]c2c1CCCCC2Cc1cccc(Cl)c1` (single isomer, unassigned) [Cpd 231, (8S*)-8-(3-chloro-benzyl)-1,4,5,6,7,8-hexahydro-cycloheptapyrazole-3-carboxylic acid [(1S)-2-hydroxy-1-phenyl-ethyl]-amide], the “% Inh (Macro), % inhibition of colitis, macroscopic score” value in test [1] is given as −19 ± 20.7%.

With `C[C@H](NS(=O)(=O)/C=C/c1n[nH]c2c1CCCCC2Cc1cccc(F)c1)c1ccccc1` (single isomer, unassigned) [Cpd 232, (2E)-2-[(8R*)-8-(3-fluoro-benzyl)-1,4,5,6,7,8-hexahydro-cycloheptapyrazol-3-yl]-ethenesulfonic acid [(1S)-1-phenyl-ethyl]-amide], the entries for the “Geometric Center (upper gastrointestinal transit)” value in test [2] (dose 10 mg/kg) and in test [2] (dose 30 mg/kg) were 4.0 ± 0.59 and 5.6 ± 0.16, respectively. Besides, the “MPO-Positive Cells (Per 200× Optical Field)” value worked out at 127.6 ± 25.7 in test [3] (dose 10 mg/kg) and 60.2 ± 20.8 in test [3] (dose 30 mg/kg).

Turning to `C[C@H](NS(=O)(=O)/C=C/c1n[nH]c2c1CCCC/C2=C\c1ccc(Cl)cc1)c1ccccc1` [Cpd 237, (2E,8E)-2-[8-(4-chloro-benzylidene)-1,4,5,6,7,8-hexahydro-cycloheptapyrazol-3-yl]-ethenesulfonic acid [(1S)-1-phenyl-ethyl]-amide], the “Geometric Center (upper gastrointestinal transit)” value in test [2] (dose 1 mg/kg) came out at 3.8 ± 0.40; in test [2] (dose 3 mg/kg), 3.6 ± 0.53; in test [2] (dose 10 mg/kg) it was 4.7 ± 0.40; in test [2] (dose 30 mg/kg), 5.6 ± 0.76. In addition, the “MPO-Positive Cells (Per 200× Optical Field)” value in test [3] (dose 1 mg/kg) is recorded as 57.8 ± 17.0; in test [3] (dose 3 mg/kg), 41.3 ± 9.4; in test [3] (dose 10 mg/kg), 77.7 ± 25.7; in test [3] (dose 30 mg/kg) it was 60.3 ± 20.9.

Values taken from patent publication US8378117B2 (priority 2005, dated 2013).
